What was measured:
Type in all cases: functional
Lepidium sativum [1] = experiment: Inhibitory activity on cress growth at a concentration of 0.05 uM
Lepidium sativum [2] = experiment: Inhibitory activity on cress growth at a concentration of 0.1 uM
Oryza sativa = experiment: Compound was tested for its activity in rice stem elongation test at a concentration of 1 uM Stem length was measured after 7 days of transplantation
Lepidium sativum [3] = experiment: Inhibitory activity on cress growth at a concentration of 5 uM
Lepidium sativum [4] = experiment: Inhibitory activity on cress growth at a concentration of 0.5 uM
Lepidium sativum [5] = experiment: Inhibitory activity on cress growth at a concentration of 1 uM

With `CC(O)(c1ccccc1)C(Cc1ccc(Cl)cc1)n1cncn1` (centres undefined) as the compound, how does the Hypocotyl length (Lepidium sativum [1]) read?
Its Hypocotyl length is roughly 2 cm.

And the Hypocotyl length (Lepidium sativum [2])?
Its Hypocotyl length is roughly 2.25 cm.

What about the Rice stem length (Oryza sativa) of the same compound?
The Rice stem length was roughly 2.7 cm.

What about the Hypocotyl length (Lepidium sativum [3]) of the same compound?
Its Hypocotyl length is 0.5 cm.

What about the Hypocotyl length (Lepidium sativum [4]) of the same compound?
The Hypocotyl length was 1.25 cm.

What about the Hypocotyl length (Lepidium sativum [5]) of the same compound?
The Hypocotyl length was 0.75 cm.

`COc1cccc(/C=C(\C(O)C(C)(C)C)n2cncn2)c1` (centres undefined) was tested. Which Rice stem length (Oryza sativa) did it give?
The Rice stem length was 2.7 cm.

`OC(c1ccccc1)C(Cc1ccc(Cl)cc1)n1cncn1` (centres undefined) was tested. Which Rice stem length (Oryza sativa) did it give?
The Rice stem length was roughly 2.6 cm.

Which Rice stem length (Oryza sativa) does the source give for `CC(C)(C)C(O)/C(=C\c1ccc(Cl)cc1Cl)n1cncn1` (centres undefined) here?
The Rice stem length was 1.2 cm.

How did the Hypocotyl length (Lepidium sativum [1]) turn out when `CC(C)(C)C(O)/C(=C\c1ccc(Cl)cc1)n1cncn1` (centres undefined) was run?
Its Hypocotyl length is 1 cm.

What about the Hypocotyl length (Lepidium sativum [2]) of the same compound?
The Hypocotyl length was roughly 0.52 cm.

And the Rice stem length (Oryza sativa)?
Its Rice stem length is 1.4 cm.

What about the Hypocotyl length (Lepidium sativum [3]) of the same compound?
Its Hypocotyl length is 0.5 cm.

And the Hypocotyl length (Lepidium sativum [4])?
Its Hypocotyl length is roughly 0.51 cm.

What about the Hypocotyl length (Lepidium sativum [5]) of the same compound?
Its Hypocotyl length is roughly 0.51 cm.

`CC(C)(C)C(O)C(CCc1ccccc1)n1cncn1` (centres undefined) was tested. Which Rice stem length (Oryza sativa) did it give?
Its Rice stem length is roughly 2 cm.

Which Rice stem length (Oryza sativa) does the source give for `CCCCOc1ccc(/C=C(\C(O)C(C)(C)C)n2cncn2)cc1` (centres undefined) here?
Its Rice stem length is 2.4 cm.

What does the source list for `OC(/C(=C\c1ccc(Cl)cc1)n1cncn1)c1ccccc1` (centres undefined)?
Hypocotyl length (Lepidium sativum [1]): ~2 cm; Hypocotyl length (Lepidium sativum [2]): 1.75 cm; Rice stem length (Oryza sativa): 2.7 cm; Hypocotyl length (Lepidium sativum [4]): 1 cm; Hypocotyl length (Lepidium sativum [5]): ~0.75 cm

For `CC(C)(C)C(O)C(Cc1ccc(Cl)cc1)n1cncn1` (centres undefined), which Rice stem length (Oryza sativa) is on record?
The Rice stem length was 1 cm.

With `CC(C)(C)C(O)C(CCCOc1ccccc1)n1cncn1` (centres undefined) as the compound, how does the Rice stem length (Oryza sativa) read?
Its Rice stem length is 2.1 cm.
